From article PMC7487798, “Glutaredoxin 1 Deficiency Leads to Microneme Protein-Mediated Growth Defects in Neospora caninum” (Frontiers in Microbiology, 2020)

Molecular target: T1, NcGrx1 (rNcGrx1) (Neospora caninum, UniProt F0VCE0)
T1 construct: gene NCLIV_038390; recombinant NcGrx1; dithiol CPYC active site
Experiment: HED assay, coupled to glutathione reductase, NADPH consumption at […] nm
Format: biochemical
Settings: 0.05-2 mM HED, 600 nM enzyme, 1 mM GSH, 200 μM NADPH, 100 mM potassium phosphate, 1 mM EDTA, pH 7.0, 25 °C; HED preincubated 3 min with GSH to form the mixed disulfide

T1 sequence (F0VCE0 entry or part of it): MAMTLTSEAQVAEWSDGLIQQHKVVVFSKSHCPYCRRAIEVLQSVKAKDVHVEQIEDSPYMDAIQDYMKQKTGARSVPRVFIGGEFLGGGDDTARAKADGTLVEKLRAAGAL

OCCSSCCO [β-hydroxyethyl disulfide]
Km: 208 ± 23.9 µM
